Source: paper PMC11167047 (Cell Death Discovery, 2024)

Tests used:
Test in all cases: kinome screen (33PanQinase)
Assay type in all cases: biochemical
BRSK1 = molecular target: T1, BRSK1 (Homo sapiens, UniProt Q8TDC3)
T1 construct: purchased Reaction Biology Europe GmbH (formerly ProQinase)
T1 sequence (Q8TDC3 1-778): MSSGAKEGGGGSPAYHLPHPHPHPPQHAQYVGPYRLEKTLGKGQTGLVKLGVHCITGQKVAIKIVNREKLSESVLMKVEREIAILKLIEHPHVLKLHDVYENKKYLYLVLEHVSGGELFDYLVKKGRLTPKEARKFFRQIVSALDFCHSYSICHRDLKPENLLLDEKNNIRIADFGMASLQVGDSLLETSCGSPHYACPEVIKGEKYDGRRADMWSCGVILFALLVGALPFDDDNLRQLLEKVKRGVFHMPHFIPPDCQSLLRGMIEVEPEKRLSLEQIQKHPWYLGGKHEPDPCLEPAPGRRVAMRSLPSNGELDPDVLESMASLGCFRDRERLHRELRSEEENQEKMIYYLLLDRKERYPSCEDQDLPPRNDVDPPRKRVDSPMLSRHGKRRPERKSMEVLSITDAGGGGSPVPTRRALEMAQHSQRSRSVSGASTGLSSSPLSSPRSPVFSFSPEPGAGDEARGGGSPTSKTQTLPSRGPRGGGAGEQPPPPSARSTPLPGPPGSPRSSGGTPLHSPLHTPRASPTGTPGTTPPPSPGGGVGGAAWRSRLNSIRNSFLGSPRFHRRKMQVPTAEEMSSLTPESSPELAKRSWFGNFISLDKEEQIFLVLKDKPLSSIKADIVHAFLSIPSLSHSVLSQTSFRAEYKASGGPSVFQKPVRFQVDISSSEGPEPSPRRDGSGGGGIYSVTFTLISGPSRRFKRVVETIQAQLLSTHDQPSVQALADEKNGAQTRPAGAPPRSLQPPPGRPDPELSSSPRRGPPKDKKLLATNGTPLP
Description: (§1) The Kinome Screening was performed by Reaction Biology Europe GmbH (http://reactionbiology.com; Freiburg i. Br., Germany).

EPHB3 = molecular target: T2, EPHB3 (Homo sapiens, UniProt P54753)
T2 construct: purchased Reaction Biology Europe GmbH (formerly ProQinase)
T2 sequence (P54753 34-998): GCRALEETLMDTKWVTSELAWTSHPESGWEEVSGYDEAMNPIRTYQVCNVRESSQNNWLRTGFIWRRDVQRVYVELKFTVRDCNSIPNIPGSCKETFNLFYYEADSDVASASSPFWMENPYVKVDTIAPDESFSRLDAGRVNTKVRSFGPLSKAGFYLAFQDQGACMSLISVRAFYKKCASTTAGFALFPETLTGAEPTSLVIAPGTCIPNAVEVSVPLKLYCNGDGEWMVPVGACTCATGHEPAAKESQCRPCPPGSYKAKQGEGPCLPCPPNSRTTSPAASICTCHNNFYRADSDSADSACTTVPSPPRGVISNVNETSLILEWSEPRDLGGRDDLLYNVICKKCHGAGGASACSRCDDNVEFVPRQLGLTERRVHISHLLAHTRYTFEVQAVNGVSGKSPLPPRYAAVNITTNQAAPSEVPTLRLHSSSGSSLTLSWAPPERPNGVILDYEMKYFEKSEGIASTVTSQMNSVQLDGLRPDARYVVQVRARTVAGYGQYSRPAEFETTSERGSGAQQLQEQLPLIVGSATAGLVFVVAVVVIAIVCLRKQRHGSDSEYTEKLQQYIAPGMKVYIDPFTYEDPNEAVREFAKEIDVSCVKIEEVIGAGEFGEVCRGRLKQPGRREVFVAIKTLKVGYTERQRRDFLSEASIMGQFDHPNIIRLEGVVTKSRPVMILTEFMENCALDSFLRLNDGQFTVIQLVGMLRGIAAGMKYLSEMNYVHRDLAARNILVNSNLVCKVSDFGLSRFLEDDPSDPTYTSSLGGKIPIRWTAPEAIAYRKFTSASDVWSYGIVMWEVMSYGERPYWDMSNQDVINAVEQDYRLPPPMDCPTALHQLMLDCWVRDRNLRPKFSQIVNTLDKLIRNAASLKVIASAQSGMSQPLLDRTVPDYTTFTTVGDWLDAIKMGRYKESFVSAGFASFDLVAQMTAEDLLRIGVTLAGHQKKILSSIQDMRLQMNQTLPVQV
Description: as §1

HCK = molecular target: T3, HCK (Homo sapiens, UniProt P08631)
T3 construct: purchased Reaction Biology Europe GmbH (formerly ProQinase)
T3 sequence (P08631 whole entry): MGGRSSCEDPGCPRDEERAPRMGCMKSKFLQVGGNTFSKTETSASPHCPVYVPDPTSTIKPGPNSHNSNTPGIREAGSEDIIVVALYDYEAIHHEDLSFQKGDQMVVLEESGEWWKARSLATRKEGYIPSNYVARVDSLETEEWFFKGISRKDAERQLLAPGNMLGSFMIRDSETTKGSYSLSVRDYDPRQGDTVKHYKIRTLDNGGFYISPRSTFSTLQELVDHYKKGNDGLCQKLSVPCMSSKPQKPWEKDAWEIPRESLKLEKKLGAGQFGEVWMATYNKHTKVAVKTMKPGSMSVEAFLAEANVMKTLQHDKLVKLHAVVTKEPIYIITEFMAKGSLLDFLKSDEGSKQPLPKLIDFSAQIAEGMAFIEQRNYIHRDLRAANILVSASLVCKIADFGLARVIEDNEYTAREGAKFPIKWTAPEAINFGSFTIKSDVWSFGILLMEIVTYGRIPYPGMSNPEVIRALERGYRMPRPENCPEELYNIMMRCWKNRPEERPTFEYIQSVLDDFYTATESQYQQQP
Description: as §1

SAK = molecular target: T4, SAK (Homo sapiens, UniProt O00444)
T4 construct: purchased Reaction Biology Europe GmbH (formerly ProQinase)
T4 sequence (O00444 1-970): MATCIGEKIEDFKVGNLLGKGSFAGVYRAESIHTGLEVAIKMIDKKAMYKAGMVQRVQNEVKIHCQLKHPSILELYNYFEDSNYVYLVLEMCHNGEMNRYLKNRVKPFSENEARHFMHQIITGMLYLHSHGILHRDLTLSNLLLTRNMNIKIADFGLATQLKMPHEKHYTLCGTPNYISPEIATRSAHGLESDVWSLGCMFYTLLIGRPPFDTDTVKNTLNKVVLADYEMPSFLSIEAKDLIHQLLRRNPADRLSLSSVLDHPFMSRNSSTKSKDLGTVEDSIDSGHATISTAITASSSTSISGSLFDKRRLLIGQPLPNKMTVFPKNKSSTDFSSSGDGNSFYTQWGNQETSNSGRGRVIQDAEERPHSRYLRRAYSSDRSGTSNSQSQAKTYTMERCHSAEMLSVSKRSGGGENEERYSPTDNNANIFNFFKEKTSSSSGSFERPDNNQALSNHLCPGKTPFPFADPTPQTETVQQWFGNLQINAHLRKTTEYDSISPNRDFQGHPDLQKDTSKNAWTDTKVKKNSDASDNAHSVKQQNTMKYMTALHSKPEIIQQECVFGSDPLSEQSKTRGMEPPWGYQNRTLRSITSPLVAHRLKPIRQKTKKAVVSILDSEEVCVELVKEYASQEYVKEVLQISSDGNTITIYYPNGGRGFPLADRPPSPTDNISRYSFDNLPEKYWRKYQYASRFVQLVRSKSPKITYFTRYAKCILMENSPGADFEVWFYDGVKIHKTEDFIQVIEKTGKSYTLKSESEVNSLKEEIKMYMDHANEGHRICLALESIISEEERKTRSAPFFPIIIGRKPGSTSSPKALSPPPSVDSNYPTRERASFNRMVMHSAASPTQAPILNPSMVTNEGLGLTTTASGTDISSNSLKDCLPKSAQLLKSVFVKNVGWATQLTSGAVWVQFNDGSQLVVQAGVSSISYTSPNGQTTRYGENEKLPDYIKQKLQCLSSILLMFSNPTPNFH
Description: as §1

| SMILES | residual kinase activity (BRSK1; 0.03 µM) | residual kinase activity (BRSK1; 0.3 µM) | residual kinase activity (EPHB3; 0.03 µM) | residual kinase activity (EPHB3; 0.3 µM) | residual kinase activity (HCK; 0.03 µM) | residual kinase activity (HCK; 0.3 µM) | residual kinase activity (SAK; 0.03 µM) | residual kinase activity (SAK; 0.3 µM) | residual kinase activity (BRSK1; 3 µM) | residual kinase activity (EPHB3; 3 µM) | residual kinase activity (HCK; 3 µM) | residual kinase activity (SAK; 3 µM) |
| --- | --- | --- | --- | --- | --- | --- | --- | --- | --- | --- | --- | --- |
| COc1ccnc2[nH]cc(-c3cc(N)nc(N)c3)c12 [meriolin 16] | 91 % of control | 97 % of control | 101 % of control | 99 % of control | 106 % of control | 81 % of control | 97 % of control | 84 % of control | – | – | – | – |
| c1ccc(CNc2cc(-c3c[nH]c4ncccc34)ccn2)cc1 [meriolin 36] | – | 89 % of control | – | 91 % of control | – | 75 % of control | – | 53 % of control | 73 % of control | 67 % of control | 25 % of control | 24 % of control |
